The text below walks through data of ChEMBL document CHEMBL1151491 (Bioorg Med Chem Lett, 1995).

pKi: −log10 of the molar value.

Experiment [1] concerns the target T1, Muscarinic acetylcholine receptor M2 (Rattus norvegicus, UniProt P10980).
T1 sequence (P10980 whole entry): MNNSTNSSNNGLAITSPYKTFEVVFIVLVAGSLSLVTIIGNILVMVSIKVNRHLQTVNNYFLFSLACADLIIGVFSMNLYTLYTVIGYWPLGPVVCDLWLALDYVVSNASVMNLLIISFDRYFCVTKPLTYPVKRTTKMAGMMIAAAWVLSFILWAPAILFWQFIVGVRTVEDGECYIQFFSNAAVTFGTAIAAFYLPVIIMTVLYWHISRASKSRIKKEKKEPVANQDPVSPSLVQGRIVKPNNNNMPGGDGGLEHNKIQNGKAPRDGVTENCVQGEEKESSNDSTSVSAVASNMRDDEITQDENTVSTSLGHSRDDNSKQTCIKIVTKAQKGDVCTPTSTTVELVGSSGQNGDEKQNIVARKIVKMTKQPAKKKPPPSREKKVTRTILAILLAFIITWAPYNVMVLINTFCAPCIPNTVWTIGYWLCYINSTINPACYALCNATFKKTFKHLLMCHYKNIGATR
Briefly: Inhibition of binding of [3H]N-methylscopolamine to muscarinic receptor (M2) in rat heart homogenates. In kind it is tissue-based.

In experiment [2] the target is Muscarinic acetylcholine receptor M3 (Rattus norvegicus, UniProt P08483). Briefly: Inhibition of binding of [3H]N-methylscopolamine to muscarinic receptor (M3) in rat submaxillary gland homogenates.
Chain of Muscarinic acetylcholine receptor M3 (P08483 whole entry): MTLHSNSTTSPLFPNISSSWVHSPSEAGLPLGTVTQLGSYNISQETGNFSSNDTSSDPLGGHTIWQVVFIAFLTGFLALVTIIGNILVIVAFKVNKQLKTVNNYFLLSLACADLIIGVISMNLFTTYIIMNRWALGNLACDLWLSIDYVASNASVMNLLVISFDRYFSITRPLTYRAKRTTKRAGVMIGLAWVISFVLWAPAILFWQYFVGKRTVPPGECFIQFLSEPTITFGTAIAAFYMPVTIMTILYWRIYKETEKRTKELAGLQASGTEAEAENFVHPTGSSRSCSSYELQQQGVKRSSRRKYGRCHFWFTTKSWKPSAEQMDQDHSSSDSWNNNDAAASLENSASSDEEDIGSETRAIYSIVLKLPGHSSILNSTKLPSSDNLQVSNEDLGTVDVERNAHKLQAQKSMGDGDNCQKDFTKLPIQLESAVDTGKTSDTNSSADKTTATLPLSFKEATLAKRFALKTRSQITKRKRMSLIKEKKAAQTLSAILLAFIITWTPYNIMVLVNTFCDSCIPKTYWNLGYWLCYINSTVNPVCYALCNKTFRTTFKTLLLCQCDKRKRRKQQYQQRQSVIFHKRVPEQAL
Experiment [3] has as its target T2, Muscarinic acetylcholine receptor M4 (Rattus norvegicus, UniProt P08485).
T2 sequence (P08485 whole entry): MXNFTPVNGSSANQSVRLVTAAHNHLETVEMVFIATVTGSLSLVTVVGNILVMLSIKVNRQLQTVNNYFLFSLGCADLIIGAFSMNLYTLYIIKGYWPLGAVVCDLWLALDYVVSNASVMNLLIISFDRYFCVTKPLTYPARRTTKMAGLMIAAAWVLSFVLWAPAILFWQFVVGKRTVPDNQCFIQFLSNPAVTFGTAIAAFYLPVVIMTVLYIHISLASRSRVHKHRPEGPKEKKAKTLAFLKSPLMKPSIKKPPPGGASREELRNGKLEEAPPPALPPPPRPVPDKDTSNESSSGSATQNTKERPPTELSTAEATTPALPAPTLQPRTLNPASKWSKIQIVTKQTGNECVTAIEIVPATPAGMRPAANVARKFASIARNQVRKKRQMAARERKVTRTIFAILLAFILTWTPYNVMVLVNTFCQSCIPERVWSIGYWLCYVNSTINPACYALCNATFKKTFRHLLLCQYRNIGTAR
Nature of the experiment: Inhibition of binding of [3H]N-methylscopolamine to Muscarinic acetylcholine receptor M4 in NG 108-15 cell homogenates. The experiment is classed as cell-free.

Experiment [4] deals with T3, Muscarinic acetylcholine receptor M1 (Rattus norvegicus, UniProt P08482).
T3 sequence (P08482 whole entry): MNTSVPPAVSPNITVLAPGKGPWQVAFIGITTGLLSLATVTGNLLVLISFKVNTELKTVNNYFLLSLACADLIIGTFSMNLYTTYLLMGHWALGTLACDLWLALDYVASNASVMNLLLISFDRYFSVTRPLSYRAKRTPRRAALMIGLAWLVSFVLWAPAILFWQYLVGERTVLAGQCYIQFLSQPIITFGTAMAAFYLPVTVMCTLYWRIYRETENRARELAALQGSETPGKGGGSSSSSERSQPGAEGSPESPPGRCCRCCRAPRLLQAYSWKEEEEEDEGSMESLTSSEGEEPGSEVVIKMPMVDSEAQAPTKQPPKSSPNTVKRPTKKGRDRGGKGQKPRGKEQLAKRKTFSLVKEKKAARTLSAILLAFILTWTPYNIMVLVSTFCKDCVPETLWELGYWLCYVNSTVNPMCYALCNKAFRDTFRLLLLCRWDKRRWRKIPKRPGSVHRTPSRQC
Nature of the experiment: Inhibition of binding of [3H]pirenzepine to muscarinic receptor (M1) in rat cortex homogenates.

Regarding `CN(CCCCCCCCN(C)CCCCCCN1CCC(OC(=O)C(c2ccccc2)c2ccccc2)CC1)CCCCCCN1CCC(OC(=O)C(c2ccccc2)c2ccccc2)CC1`, the pKi – broadly, −log10 of the Ki, conventionally taken in molar units – in experiment [1] was 6.74; in experiment [2], 5.67; in experiment [3], 7.40; in experiment [4] it was 7.12.

The compound `C[N+]1(C)CCC(OC(=O)C(c2ccccc2)c2ccccc2)CC1` [4-DAMP] showed a pKi in experiment [3] of […].

For `CN(CCCCCCCCN(C)CCCCCCN1CCC2(CC1)OC(=O)C(c1ccccc1)(c1ccccc1)O2)CCCCCCN1CCC2(CC1)OC(=O)C(c1ccccc1)(c1ccccc1)O2` [SPIROTRAMINE], the pKi is 6.20 in experiment [1], 6.01 in experiment [2], 6.27 in experiment [3] and 7.88 in experiment [4].
